Experimental data: patent US10501479B2, “Benzenesulfonyl-asymmetric ureas and medical uses thereof” (HELSINN HEALTHCARE SA, priority 2016, dated 2019)
pEC50, pIC50: −log10 of the molar value.

Experiments:
[1] = molecular target: T1, GHSR-1a (HEK293/GHSR1a cell line) (Homo sapiens, UniProt Q92847); test: Ghrelin antagonist potency (IC50) with calcium FLIPR assay, ghrelin 10 nM; assay type: cell-based; details: HEK293/GHSR1a, ghrelin 10 nM, read-out: Activity IC50 (ghrelin antagonist potency)
T1 construct: expressed in transfected cells; host or cells: HEK293/GHSR1a cell line
Outline: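 Calcium flux was followed 2 min by FLIPR in dye-loaded HEK293/GHSR1a cells. For antagonist IC50, compound and ghrelin (10 nM) were co-added at t=20 sec and inhibition of the ghrelin signal fitted; for agonist EC50, compound alone was added at t=20 sec and dose-response fitted.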

[2] = molecular target: T1, GHSR-1a (HEK293/GHSR1a cell line); test: Ghrelin agonist potency (EC50) with calcium FLIPR assay; assay type: cell-based; details: HEK293/GHSR1a, read-out: Activity EC50/EMax: EC50 (ghrelin agonist potency)
Experimental: Evaluation of Ghrelin Agonist (EC50) and Antagonist Potency (IC50) with Calcium FLIPR Assay:
The intracellular calcium assay was carried out in a 384-well format FLIPR™ (Molecular Device) HEK293/GHSR1a cell line. Cells were seeded 24 hr prior to the experiments at an optimal density per well. Preincubation with selected calcium dye lasted for 30-60 min at room temperature or 37° C. Test compounds, dissolved in DMSO, were added at the appropriate time and incubated for 15 min followed by the addition of ghrelin with FlexStation or FLIPR. Relative fluorescence was monitored by the FLIPR™ Molecular Device. EC50 and IC50 values were estimated from dose-response data using GraphPad Prism software. To check for GHSR-1a agonism, the compound was added at t=20 sec. and the calcium response was followed for 2 minutes. To check for GHSR-1a antagonism, the compound and Ghrelin (10 nM) were added to the cells at t=20 sec. and the calcium response was measured for 2 minutes. The potency of the antagonist was calculated by its ability to reduce the ghrelin response. Dose-response curves were made for relevant antagonists.

T1 sequence (Q92847 whole entry): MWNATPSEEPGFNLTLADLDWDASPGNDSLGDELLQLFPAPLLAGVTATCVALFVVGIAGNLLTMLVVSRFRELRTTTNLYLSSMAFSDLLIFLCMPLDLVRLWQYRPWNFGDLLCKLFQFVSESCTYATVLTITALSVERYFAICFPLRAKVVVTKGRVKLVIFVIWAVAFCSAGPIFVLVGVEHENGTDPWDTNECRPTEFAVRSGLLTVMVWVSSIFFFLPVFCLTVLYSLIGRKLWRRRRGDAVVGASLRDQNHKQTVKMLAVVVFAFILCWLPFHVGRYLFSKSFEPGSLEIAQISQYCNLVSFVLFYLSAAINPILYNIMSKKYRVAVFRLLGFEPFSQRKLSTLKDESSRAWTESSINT

Compound | pIC50 [1] | pEC50 [2]
C[C@H](NC(=O)Nc1ccc2c(c1)CC(c1ccc3c(c1)CN(C)C3)S2(=O)=O)c1ccccc1 (stereo partly drawn) [H1285, 1-(2-(2-methylisoindolin-5-yl)-1,1-dioxido-2,3-dihydrobenzo[b]thiophen-5-yl)-3-((S)-1-phenylethyl)urea] | 7.19 | 6.83
CC(NC(=O)Nc1ccc(S(=O)(=O)Cc2ccc3c(c2)CNC3=O)cc1)c1ccccc1 (centres unmarked) [H1292, 1-(4-(((1-oxoisoindolin-5-yl)methyl)sulfonyl)phenyl)-3-(1-phenylethyl)urea] | < 4.52 | < 4.52
CC(NC(=O)Nc1ccc(S(=O)(=O)Cc2ccc3c(c2)C(N2CCCC2)CC3)cc1)c1ccccc1 (centres unmarked) [H1294, 1-(1-phenylethyl)-3-(4-(((3-(pyrrolidin-1-yl)-2,3-dihydro-1H-inden-5-yl)methyl)sulfonyl)phenyl)urea] | 5.48 | 4.89
C[C@H](NC(=O)Nc1ccc(S(=O)(=O)Cc2ccc(CN3CCC(O)C3)cc2)cc1)c1ccccc1 (stereo partly drawn) [H1313, 1-(4-((4-((3-hydroxypyrrolidin-1-yl)methyl)benzyl)sulfonyl)phenyl)-3-((S)-1-phenylethyl)urea] | 5.84 | < 4.52
C[C@H](NC(=O)Nc1ccc(S(=O)(=O)Cc2ccc(CN3CCC(CO)C3)cc2)cc1)c1ccccc1 (stereo partly drawn) [H1314, 1-(4-((4-((3-(hydroxymethyl)pyrrolidin-1-yl)methyl)benzyl)sulfonyl)phenyl)-3-((S)-1-phenylethyl)urea] | 5.51 | < 4.52
C[C@H](NC(=O)Nc1ccc(S(=O)(=O)Nc2ccc3c(c2)CCN(C)C3)cc1)c1ccccc1 [H1315, (S)-N-(2-methyl-1,2,3,4-tetrahydroisoquinolin-6-yl)-4-(3-(1-phenylethyl)ureido) benzenesulfonamide] | 6.52 | < 4.52
CC(NC(=O)Nc1ccc(S(=O)(=O)Cc2cccc(CN3CCCC3)c2)cc1)c1ccccc1 (centres unmarked) [H1318, 1-(1-phenylethyl)-3-(4-((3-(pyrrolidin-1-ylmethyl)benzyl)sulfonyl)phenyl)urea] | 5.27 | < 4.52
C[C@H](NC(=O)Nc1ccc(S(=O)(=O)Cc2ccc3c(c2)C2CCC3N2)cc1)c1ccccc1 (stereo partly drawn) [H1324, 1-((S)-1-phenylethyl)-3-(4-(((1,2,3,4-tetrahydro-1,4-epiminonaphthalen-6-yl)methyl)sulfonyl)phenyl)urea] | 4.98 | < 4.52
C[C@H](NC(=O)Nc1ccc(S(=O)(=O)Cc2ccc3c(c2)C2CCC3N2C)cc1)c1ccccc1 (stereo partly drawn) [H1325, 1-(4-(((9-methyl-1,2,3,4-tetrahydro-1,4-epiminonaphthalen-6-yl)methyl)sulfonyl)phenyl)-3-((S)-1-phenylethyl)urea] | 5.42 | < 4.52
C[C@H](NC(=O)Nc1ccc(S(=O)(=O)Cc2ccc(C3CCCN3)cc2)cc1)c1ccccc1 (stereo partly drawn) [H1328, 1-((S)-1-phenylethyl)-3-(4-((4-(pyrrolidin-2-yl)benzyl)sulfonyl)phenyl)urea] | 6.26 | < 4.52
CC(NC(=O)Nc1ccc(S(=O)(=O)Cc2ccc3nn(C)cc3c2)cc1)c1ccccc1 (centres unmarked) [H1329, 1-(4-(((2-methyl-2H-indazol-5-yl)methyl)sulfonyl)phenyl)-3-(1-phenylethyl)urea] | < 4.52 | < 4.52
CCN(CC)c1ccc(CS(=O)(=O)c2ccc(NC(=O)NC(C)c3cccc(Cl)c3Cl)cc2)cc1 (centres unmarked) [H1360, 1-(1-(2,3-dichlorophenyl)ethyl)-3-(4-((4-(diethylamino)benzyl)sulfonyl)phenyl)urea] | < 4.52 | < 4.52
CCN(CC)CCCS(=O)(=O)c1ccc(NC(=O)NC(C)c2cccc(Cl)c2Cl)cc1 (centres unmarked) [H1361, 1-(1-(2,3-dichlorophenyl)ethyl)-3-(4-((3-(diethylamino)propyl)sulfonyl)phenyl)urea] | 5.79 | < 4.52
